According to patent US12655116B2, “Substituted isophthalic acid diamides” (Bayer Aktiengesellschaft, priority 2020, dated 2026):

Assays:
[1] = system: ABUTH; experiment: Pre-emergence herbicidal action against ABUTH; format: in vivo, Abutilon theophrasti; conditions: Abutilon theophrasti, 504 h; for pest or weed control at 80 g/ha: scored visually after 3 weeks vs untreated controls (100% = plants have died, 0% = like control plants); for pest or weed control at 20 g/ha: dosage 20 g/ha, scored visually after 3 weeks vs untreated controls, 100% = plants have died, 0% = like control plants, read-out: Pre-emergence action against ABUTH (herbicidal activity in percent)
Outline: (§1)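 Visual rating at 3 weeks vs untreated pots; 0–100% scale, 100% = plants died. Treatment: aqueous WP/EC spray onto covering soil, 600–800 l/ha, 0.2% wetter, seeds in sandy loam.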

[2] = system: AMARE; experiment: Pre-emergence herbicidal action against AMARE; format: in vivo, Amaranthus retroflexus; conditions: Amaranthus retroflexus, 504 h, scored visually after 3 weeks vs untreated controls, 100% = plants have died, 0% = like control plants
Outline: as §1

[3] = system: ECHCG; experiment: Pre-emergence herbicidal action against ECHCG; format: in vivo, Echinochloa crus-galli; conditions: Echinochloa crus-galli, 504 h
Outline: as §1

[4] = system: MATIN; experiment: Pre-emergence herbicidal action against MATIN; format: in vivo, Matricaria inodora; conditions: Tripleurospermum inodorum, 504 h; for pest or weed control at 20 g/ha: dosage 20 g/ha; for pest or weed control at 80 g/ha: dosage 80 g/ha
Outline: as §1

[5] = system: PHBPU; experiment: Pre-emergence herbicidal action against PHBPU; format: in vivo, Pharbitis purpurea; conditions: Ipomoea purpurea, 504 h, dosage 80 g/ha
Outline: as §1

[6] = system: POLCO; experiment: Pre-emergence herbicidal action against POLCO; format: in vivo, Polygonum convolvulus; conditions: Fallopia convolvulus, 504 h, dosage 80 g/ha
Outline: as §1

[7] = system: SETVI; experiment: Pre-emergence herbicidal action against SETVI; format: in vivo, Setaria viridis; conditions: Setaria viridis, 504 h; for pest or weed control at 20 g/ha: dosage 20 g/ha; for pest or weed control at 80 g/ha: dosage 80 g/ha
Outline: as §1

[8] = system: VERPE; experiment: Pre-emergence herbicidal action against VERPE; format: in vivo, Veronica persica; conditions: Veronica persica, 504 h, dosage 80 g/ha
Outline: as §1

[9] = system: VIOTR; experiment: Pre-emergence herbicidal action against VIOTR; format: in vivo, Viola tricolor; conditions: Viola tricolor, 504 h; for pest or weed control at 20 g/ha: dosage 20 g/ha; for pest or weed control at 80 g/ha: dosage 80 g/ha
Outline: as §1

[10] = system: DIGSA; experiment: Pre-emergence herbicidal action against DIGSA; format: in vivo, Digitaria sanguinalis; conditions: Digitaria sanguinalis, 504 h; for pest or weed control at 20 g/ha: dosage 20 g/ha; for pest or weed control at 80 g/ha: dosage 80 g/ha
Outline: as §1

[11] = system: ABUTH; experiment: Post-emergence herbicidal action against ABUTH; format: in vivo, Abutilon theophrasti; conditions: Abutilon theophrasti, 504 h, visual assessment about 3 weeks after treatment vs untreated controls; for pest or weed control at 5 g/ha: dosage 5 g/ha; for pest or weed control at 20 g/ha: dosage 20 g/ha
Outline: (§2)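 Weeds in sandy loam soil received a post-emergence spray at the one-leaf stage. Compounds were applied as WP or EC in water, 600 to 800 l/ha, with 0.2% wetting agent. Activity in % was judged visually after roughly 3 weeks against untreated plants.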

[12] = system: AMARE; experiment: Post-emergence herbicidal action against AMARE; format: in vivo, Amaranthus retroflexus; conditions: Amaranthus retroflexus, 504 h, 20 g/ha, visual assessment about 3 weeks after treatment, 100% = plants have died, 0% = like control plants
Outline: as §2

[13] = system: ECHCG; experiment: Post-emergence herbicidal action against ECHCG; format: in vivo, Echinochloa crus-galli; conditions: Echinochloa crus-galli, 504 h, dosage 20 g/ha
Outline: as §2

[14] = system: MATIN; experiment: Post-emergence herbicidal action against MATIN; format: in vivo, Matricaria inodora; conditions: Tripleurospermum inodorum, 504 h; for pest or weed control at 5 g/ha: dosage 5 g/ha; for pest or weed control at 20 g/ha: dosage 20 g/ha
Outline: as §2

[15] = system: SETVI; experiment: Post-emergence herbicidal action against SETVI; format: in vivo, Setaria viridis; conditions: Setaria viridis, 504 h; for pest or weed control at 20 g/ha: dosage 20 g/ha
Outline: as §2

[16] = system: VERPE; experiment: Post-emergence herbicidal action against VERPE; format: in vivo, Veronica persica; conditions: Veronica persica, 504 h
Outline: as §2

[17] = system: VIOTR; experiment: Post-emergence herbicidal action against VIOTR; format: in vivo, Viola tricolor; conditions: Viola tricolor, 504 h
Outline: as §2

[18] = system: DIGSA; experiment: Post-emergence herbicidal action against DIGSA; format: in vivo, Digitaria sanguinalis; conditions: Digitaria sanguinalis, 504 h, 20 g/ha
Outline: as §2

[19] = system: PHBPU; experiment: Post-emergence herbicidal action against PHBPU; format: in vivo, Pharbitis purpurea; conditions: Ipomoea purpurea, 504 h, dosage 20 g/ha
Outline: as §2

Compound	pest or weed control at 80 g/ha [1] [%]	pest or weed control at 20 g/ha [1] [%]	pest or weed control at 20 g/ha [2] [%]	pest or weed control at 80 g/ha [2] [%]	pest or weed control at 80 g/ha [3] [%]	pest or weed control at 20 g/ha [4] [%]	pest or weed control at 80 g/ha [4] [%]	pest or weed control at 80 g/ha [5] [%]	pest or weed control at 80 g/ha [6] [%]	pest or weed control at 20 g/ha [7] [%]	pest or weed control at 80 g/ha [7] [%]	pest or weed control at 80 g/ha [8] [%]	pest or weed control at 20 g/ha [9] [%]	pest or weed control at 80 g/ha [9] [%]	pest or weed control at 20 g/ha [10] [%]	pest or weed control at 80 g/ha [10] [%]	pest or weed control at 5 g/ha [11] [%]	pest or weed control at 20 g/ha [11] [%]	pest or weed control at 20 g/ha [12] [%]	pest or weed control at 20 g/ha [13] [%]	other results
CNC(=O)c1c(C(F)F)ccc(C(=O)Nc2nnnn2C)c1C1CC1 [Example 1-304]	100	100	100	100	100	90	100	80	80	90	100	100	100	100	100	100	90	90	90	90	pest or weed control at 5 g/ha [14]: 90%; pest or weed control at 20 g/ha [14]: 90%; pest or weed control at 5 g/ha ([15]; dosage 5 g/ha): 90%; pest or weed control at 20 g/ha [15]: 90%; pest or weed control at 5 g/ha ([16]; 5 g/ha): 80%; pest or weed control at 20 g/ha [16]: 80%; pest or weed control at 5 g/ha [17]: 80%; pest or weed control at 20 g/ha [17]: 90%; pest or weed control at 20 g/ha [18]: 90%
CCNC(=O)c1c(C(F)F)ccc(C(=O)Nc2nnnn2C)c1C1CC1 [Example 1-305]	100	100	100	100	100	100	100	90	80	80	100	100	100	100	100	100	90	90	90	90	pest or weed control at 20 g/ha ([3]; 20 g/ha): 80%; pest or weed control at 5 g/ha [14]: 90%; pest or weed control at 20 g/ha [14]: 90%; pest or weed control at 20 g/ha [19]: 90%; pest or weed control at 20 g/ha [15]: 90%; pest or weed control at 20 g/ha [16]: 80%; pest or weed control at 5 g/ha [17]: 90%; pest or weed control at 20 g/ha [17]: 90%; pest or weed control at 20 g/ha [18]: 80%
